Tests used:
[1] = test system: dermatitis (contact and ectopic) patients; assay: Double blind study of oral 24-OH-D2 formulation in dermatitis (contact and ectopic); type: in vivo, human; details: daily oral 10.0 to 20.0 μg, four to six weeks
Description: An oral dosage formulation containing 24-OH-D2 is evaluated in a double blind study for therapeutic efficacy of the formulation in the treatment of dermatitis (contact and ectopic). The formulation evaluated contains 10.0 to 20.0 μg of 24-OH-D2. […] The patients are treated in an outpatient clinic and are divided into an experimental and control population. They are instructed to take the medication once a day, in the morning before breakfast.
In each patient (experimental and control) an area of the skin containing a lesion is selected which is ordinarily covered by clothing, and the patients are instructed not to expose the skin area selected for study to sunlight. The area of the lesion is estimated and recorded, and the lesion(s) is photographed. Relevant details of the photographic procedure are recorded so as to be reproduced when the lesions are next photographed (distance, aperture, angle, background, etc.).
Evaluations of erythema, scaling, and thickness are conducted at weekly intervals by a physician. The final evaluation is usually carried out at the end of four to six weeks of treatment.

[2] = test system: renal patients with secondary hyperparathyroidism; assay: Clinical trial of 24-OH-D2 for secondary hyperparathyroidism in end stage renal disease; type: in vivo, human
Description: Thirty renal patients are enrolled in a clinical trial to study secondary hyperparathyroidism. The patients show baseline iPTH levels greater than 1000 pg/mL. An initial dose of 24-OH-D2 (50 μg 3 times/week) is increased (maximum, 100 μg 3 times/ week) or decreased as necessary to attain and maintain iPTH in the range of 150–300 pg/mL. After 11–12 weeks of treatment, the iPTH levels of the patients decrease to below 1000 pg/mL, and in many cases to below 500 pg/mL.

[3] = test system: cytotoxic thymus-derived lymphocyte (CTL) activity; assay: Immunological testing: CTL activity in mice immunized with allogeneic P815 tumor cells; type: in vivo, C57BL/6 mice; details: both tests: 5 micrograms daily i.p., or 10 micrograms i.p. twice; assay 10 days after immunization
Description: Female C57BL/6 mice are used between the ages of 9–12 weeks. Mice are given food and water ad libitum and are kept in a 12-hour light and 12-hour dark cycle.
A known balanced salt solution (BSS) is prepared and supplemented to 0.01 molar with HEPES buffer.
The test compound, 24-OH-D2, is dissolved in dimethylsulfoxide at final concentrations of 0.2 or 0.4 mg per ml. When working with vitamin D compounds, conditions of reduced lighting were employed.
Mice are apportioned at 4 per group and are inoculated intraperitoneally with 3×10^6 allogeneic P815 tumor cells and the resulting cytotoxic thymus-derived lymphocyte (CTL) activity is assessed 10 days later. Mice are treated by the intraperitoneal route with 25 microliters of test compound dissolved in dimethylsulfoxide or with dimethylsulfoxide only (vehicle control). […]
Ten days after immunization of mice with P815 cells, single spleen cell suspensions are prepared by passage of spleens through a steel mesh into BSS and are subsequently washed twice with BSS. […] Cytotoxic T lymphocyte activity is determined individually on spleen cells from each animal in each group and the results are expressed as the mean CTL activity (as percent specific Cr release) of each group ± the standard deviation.

[4] = test system: patients with advanced androgen-independent prostate cancer; assay: Open-label two-phase study of oral 24-(OH)-D2 in prostate cancer; type: in vivo; details: for progression of metastatic disease (CAT scans, X-rays and bone scans): second phase, after one and two years
Description: Patients with advanced androgen-independent prostate cancer participate in an open-label study of 24-(OH)-D2. […] On admission to the study, patients begin a course of therapy with oral 24-(OH)-D2 lasting 26 weeks, while discontinuing any previous use of calcium supplements, vitamin D supplements, and vitamin D hormone replacement therapies. During treatment, the patients are monitored at regular intervals for: (1) hypercalcemia, hyperphosphatemia, hypercalciuria, hyperphosphaturia and other toxicity; (2) evidence of changes in the progression of metastatic disease; and (3) compliance with the prescribed test drug dosage.
The study is conducted in two phases. During the first phase, the maximal tolerated dosage (MTD) of daily oral 24-(OH)D2 is determined by administering progressively higher dosages to successive groups of patients. All doses are administered in the morning before breakfast. The first group of patients is treated with 25.0 μg of 24-(OH)D2. Subsequent groups of patients are treated with 50.0, 75.0 and 100.0 μg/day. Dosing is continued uninterrupted for the duration of the study unless serum calcium exceeds 11.6 mg/dL, or other toxicity of grade 3 or 4 is observed, in which case dosing is held in abeyance until resolution of the observed toxic effect(s) and then resumed at a level which has been decreased by 10.0 μg.
During the second phase, patients are treated with 24-(OH)D2 for 24 months at 0.5 and 1.0 times the MTD.

[5] = In vivo generation of 1α,24-(OH)2-D2 in vitamin D-deficient rats (plasma metabolites by HPLC); details: vitamin D-deficient rats; oral or intraperitoneal supplementation; HPLC
Description: 24-OH-D2 was administered (either oral or intraperitoneal supplementation) to vitamin D-deficient rats. Lipid extracts of the plasma were prepared and the metabolites purified by the method of Horst et al. (Horst, R. L., Koszewski, N. J. and Reinhardt, T. A., Biochem., 29:578–82 (1990) and incorporated herein by reference) described below for synthesizing standard biological 1α,24-(OH)2D2.

C=C1CC[C@H](O)C/C1=C/C=C1\CCC[C@]2(C)[C@@H]([C@H](C)/C=C/C(C)(O)C(C)C)CC[C@@H]12 (some centres unmarked) [24-OH-D2, 24-hydroxyvitamin D2]
degree of erythema, scaling, and thickness versus control patients [1]: significantly reduces | iPTH levels of the patients ([2]; after 11–12 weeks, baseline greater than 1000 pg/mL, 50 μg 3 times/week, titrated): below 1000 pg/mL | iPTH levels, in many cases ([2]; after 11–12 weeks, in many cases): below 500 pg/mL | episodes of hypercalcemia ([2]; during the study): few episodes of hypercalcemia | CTL activity versus vehicle control [3]: statistically significant reduction | MTD level relative to what can be achieved with 1α,25-(OH)2D3 ([4]; first phase): 10- to 50 fold | circulating levels of 1α,25-(OH)2D3 ([4]; first phase): suppressed, often to undetectable levels | levels of circulating 24-(OH)D2 versus dosage administered ([4]; in vivo): increase proportionately with the dosage administered | maximum levels of circulating 24-(OH)D2 ([4]; in vivo): above 100 pg/mL | serum and urine calcium ([4]; in vivo): elevated in a dose responsive manner | progression of metastatic disease (CAT scans, X-rays and bone scans) ([4]; higher dosage (1.0 times the MTD)): stable disease and partial or complete remission in many patients | progression of metastatic disease (CAT scans, X-rays and bone scans) ([4]; lower dosage (0.5 times the MTD)): stable disease or partial remission in many patients | bone pain associated with metastatic disease ([4]; treated with the MTD for at least six months): significantly diminished | metabolite isolated from plasma lipid extracts versus standard 1α,24-(OH)2D2 [5]: co-migrated on HPLC with the standard 1α,24-(OH)2D2

Reference: patent publication US7122530B2, “24-hydroxyvitamin D, analogs and uses thereof” (Genzyme Corporation, priority 1998, dated 2006)
